Data from US6596772B1, “Phosphate mimics and methods of treatment using phosphatase inhibitors” (Sugen, Inc., priority 1999, dated 2003).

Key:
Assay type in all cases: biochemical
[1] = target: T1, PTP DEP1 (Homo sapiens, UniProt Q12913); experiment: PTP IC50 assay, pNPP or FDP as substrate; settings: 25° C.
T1 construct: GST-fusion proteins encompassing the entire cytoplasmic domain was done by PCR; made in house; host or cells: E. coli BL-21 (pGEX 2T)
T1 sequence (Q12913 997-1337 limits assumed): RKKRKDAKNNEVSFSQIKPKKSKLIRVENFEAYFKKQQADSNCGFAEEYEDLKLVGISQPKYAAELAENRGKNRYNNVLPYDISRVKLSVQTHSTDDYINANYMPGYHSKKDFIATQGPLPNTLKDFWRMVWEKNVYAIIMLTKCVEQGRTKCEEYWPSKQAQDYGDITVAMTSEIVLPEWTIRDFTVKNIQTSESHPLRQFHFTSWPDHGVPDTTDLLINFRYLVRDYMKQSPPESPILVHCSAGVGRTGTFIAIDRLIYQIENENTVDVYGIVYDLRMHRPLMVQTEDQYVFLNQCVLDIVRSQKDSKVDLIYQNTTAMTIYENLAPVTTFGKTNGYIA
Protocol: (§1) The following in vitro assay procedure is preferred to determine the level of activity and effect of the different compounds of the present invention on one or more of the PTPs. Similar assays can be designed along the same lines for any PTP using techniques well known in the art.
(§2) The catalytic assays described herein are performed in a 96-well format. The general procedure begins with the determination of PTP optimal pH using a three-component buffer system that minimizes ionic strength variations across a wide range of buffer pH. Next, the Michaelis-Menten constant, or Km, is determined for each specific substrate-PTP system. This Km value is subsequently used as the substrate reaction concentration for compound screening. Finally, the test PTP is exposed to varying concentrations of compound for fifteen minutes and allowed to react with substrate for ten minutes. The results are plotted as percent inhibition versus compound concentration and the IC50 interpolated from the plot.
(§3) All assays were performed using pNPP or FDP as substrate. The optimum pH was determined for each PTP used.
(§4) PTPase activity was assayed at 25° C. in a 100-μl reaction mixture containing an appropriate concentration of pNPP or FDP as substrate. The reaction was initiated by addition of the PTP and quenched after 10 min by addition of 50 μl of IN NaOH. The non-enzymatic hydrolysis of the substrate was corrected by measuring the control without the addition of the enzyme. The amount of p-nitrophenol produced was determined from the absorbance at 410 nm. To determine the kinetic parameter, Km, the initial velocities were measured at various substrate concentrations and the data were fitted to the Michaelis equation where velocity=(Vmax*[S])/(Km+[S]), and [S]=substrate reaction concentration.
(§5) The effect of the compounds on PTP was evaluated at 25° C. using pNPP or FDP as substrate. PTP was pre-incubated for fifteen minutes with various concentrations of compound. Substrate was then added at a fixed concentration (usually equal to the Km previously calculated). After 10 minutes, NaOH was added to stop the reaction. The hydrolysis of pNPP was followed at 410 nm on the Biotek Powerwave 200 microplate scanning spectrophotometer. The percent inhibition was calculated as follows: Percent Inhibition=[(control signal−compound signal)/control signal] ×100%. The IC50 was then determined by interpolation of a percent inhibition versus compound concentration plot.
(§6) Plasmids designed for bacterial GST-PTP fusion protein expression were derived by insertion of PCR-generated human PTP fragments into pGEX vectors (Pharmacia Biotech). Several of these constructs were then used to subclone phosphatases into pFastBac-1for expression in Sf-9 insect cells. Oligonucleotides used for the initial amplification of PTP genes are shown below. The cDNAs were prepared using the Gilbo BRL superscript preamplification system on RNAs purchased from Clontech.
The full length DEP1 cDNA was isolated from a human mammary cDNA library (Clontech). The construction of GST-fusion proteins encompassing the entire cytoplasmic domain was done by PCR using the following oligos; 5′oligo: 5′-[…]-3′ (SEQ ID NO: 20) 3′oligo: 5′-[…]-3′ (SEQ ID NO: 21) It was subsequently ligated into the Eco RI/Bam H1 sites of pGEX 2T.

[2] = target: T2, PTP ALPHA (Homo sapiens, UniProt P18433); experiment: PTP IC50 assay, pNPP or FDP as substrate; settings: 25° C.
T2 construct: RTPα intracellular domain construct was obtained; made in house; host or cells: E. coli BL-21 (pGEX 3X)
Protocol: as §1, §2, §3, §4, §5, §6
RTPα intracellular domain construct was obtained, Schlessinger et al., U.S. Pat. No. 5,888,794, the contents of which are hereby incorporated in their entirety into the present application. The RTPα fragment was cloned into pGEX 3× using the following procedure. The portion from EclX I/Xma III/Eag I (N-terminus blunted by Klenow) to Eco RV was cloned into the Sma I site. The EclX I site is approximately 15 residues downstream of the transmembrane domain.

[3] = target: T3, PTP PEST (Homo sapiens, UniProt Q05209); experiment: PTP IC50 assay, pNPP or FDP as substrate; settings: 25° C.
T3 construct: made in house; host or cells: E. coli BL-21 (pGEX 6P-1)
T3 sequence (Q05209 1-343 limits assumed): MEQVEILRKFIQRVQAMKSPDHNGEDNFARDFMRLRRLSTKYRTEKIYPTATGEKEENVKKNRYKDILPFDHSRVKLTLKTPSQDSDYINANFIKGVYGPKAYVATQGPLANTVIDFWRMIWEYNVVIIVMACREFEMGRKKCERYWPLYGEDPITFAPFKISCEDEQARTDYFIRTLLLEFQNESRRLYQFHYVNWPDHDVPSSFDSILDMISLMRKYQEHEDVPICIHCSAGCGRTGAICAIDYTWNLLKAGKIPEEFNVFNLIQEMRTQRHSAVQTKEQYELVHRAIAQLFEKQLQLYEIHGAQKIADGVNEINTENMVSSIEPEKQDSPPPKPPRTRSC
Protocol: as §1, §2, §3, §4, §5, §6
The PTP PEST CDNA was amplified from an HeLa cDNA library (Clonetech RNA) using the following oligonucleotides: 5′oligo: 5′-[…]-3′ (SEQ ID NO: 14) 3′oligo: 5′-[…]-3′ (SEQ ID NO: 15) It was subsequently ligated into the Eco RI/Xho I sites of pGEX 6P-1.

[4] = target: T4, PTP MU (Homo sapiens, UniProt P28827); experiment: PTP IC50 assay, pNPP or FDP as substrate; settings: pNPP or FDP as substrate, 25° C.; read-out: PTP IC50 Mu
T4 construct: made in house; host or cells: E. coli BL-21 (pGEX 6P-1)
Protocol: as §1, §2, §3, §4, §5, §6
The PTP Mu cDNA was amplified from a human lung cDNA library (Clontech) using the following oligonucleotides; 5′oligo: 5′-[…]-3′ (SEQ ID NO: 18) 3′oligo: 5′-[…]-3′ (SEQ ID NO: 19) It was subsequently ligated into the Eco RI/Xho I sites of pGEX 6P-1.

[5] = target: T5, PTP ZETA (Homo sapiens, UniProt P23471); experiment: PTP IC50 assay, pNPP or FDP as substrate; settings: 25° C.
T5 construct: made in house; host or cells: E. coli BL-21 (pGEX 6P-1)
Protocol: as §1, §2, §3, §4, §5, §6
The PTP Zeta cDNA was amplified from human placenta single strand cDNA (Clontech RNA) using the following oligonucleotides 5′oligo: 5′-[…]-3′ (SEQ ID NO: 10) 3′oligo: 5′-[…]-3′ (SEQ ID NO: 11) and subsequently ligated into pGEX 6P-1 Eco RI/Xho I sites.

[6] = target: T6, PTP EPSILON (Homo sapiens, UniProt P23469); experiment: PTP IC50 assay, fluorescent substrate DiFMUP; settings: DiFMUP as substrate, 25° C.; read-out: PTP IC50 Epilson
T6 construct: made in house; host or cells: Sf-9 insect cells (pFastBac-G2T); a pGEX 6P-1 construct also existed

[7] = target: T7, PTP 1B (Homo sapiens, UniProt P18031); experiment: PTP IC50 assay, fluorescent substrate DiFMUP; settings: DiFMUP as substrate, 25° C.; read-out: PTP IC50 1B
T7 construct: made in house; host or cells: Sf-9 insect cells (pFastBac-G2T)
T7 sequence (P18031 1-435): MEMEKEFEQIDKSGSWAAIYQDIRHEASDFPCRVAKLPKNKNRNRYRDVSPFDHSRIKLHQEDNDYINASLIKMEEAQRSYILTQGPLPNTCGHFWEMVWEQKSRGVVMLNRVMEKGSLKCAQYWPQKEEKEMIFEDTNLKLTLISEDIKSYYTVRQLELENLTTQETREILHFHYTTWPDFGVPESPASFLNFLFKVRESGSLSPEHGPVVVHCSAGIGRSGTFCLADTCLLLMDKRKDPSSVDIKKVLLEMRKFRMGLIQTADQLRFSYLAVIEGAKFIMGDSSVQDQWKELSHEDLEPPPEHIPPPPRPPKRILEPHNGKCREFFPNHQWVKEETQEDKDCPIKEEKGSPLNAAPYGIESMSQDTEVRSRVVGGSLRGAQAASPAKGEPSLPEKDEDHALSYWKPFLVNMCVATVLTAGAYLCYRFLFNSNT

[8] = target: T8, PTP SHP2 (Homo sapiens, UniProt Q06124); experiment: PTP IC50 assay, fluorescent substrate DiFMUP; settings: DiFMUP as substrate, 25° C.; read-out: PTP IC50 SHP2
T8 construct: The catalytic domain was amplified using the following oligonucleotides; made in house; host or cells: Sf-9 insect cells (pFastBac-G2T)
T8 sequence (Q06124 247-517 limits assumed): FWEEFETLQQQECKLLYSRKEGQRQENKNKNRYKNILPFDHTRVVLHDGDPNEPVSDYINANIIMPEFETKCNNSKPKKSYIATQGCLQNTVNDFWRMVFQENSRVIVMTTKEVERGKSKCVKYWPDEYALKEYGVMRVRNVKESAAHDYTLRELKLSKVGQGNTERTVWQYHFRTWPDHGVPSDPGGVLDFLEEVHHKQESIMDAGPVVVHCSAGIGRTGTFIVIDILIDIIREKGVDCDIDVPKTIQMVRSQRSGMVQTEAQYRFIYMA

T6 sequence (P23469 80-393 limits assumed): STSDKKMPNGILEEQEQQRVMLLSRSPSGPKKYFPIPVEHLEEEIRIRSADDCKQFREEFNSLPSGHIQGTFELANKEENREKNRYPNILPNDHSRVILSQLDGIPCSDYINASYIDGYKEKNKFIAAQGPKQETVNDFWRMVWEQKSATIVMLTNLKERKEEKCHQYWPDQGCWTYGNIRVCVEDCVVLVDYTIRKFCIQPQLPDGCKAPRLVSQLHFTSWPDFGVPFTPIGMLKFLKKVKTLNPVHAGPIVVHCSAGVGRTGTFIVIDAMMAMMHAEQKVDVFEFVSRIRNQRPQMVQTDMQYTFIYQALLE
T4 sequence (P28827 831-1186 limits assumed): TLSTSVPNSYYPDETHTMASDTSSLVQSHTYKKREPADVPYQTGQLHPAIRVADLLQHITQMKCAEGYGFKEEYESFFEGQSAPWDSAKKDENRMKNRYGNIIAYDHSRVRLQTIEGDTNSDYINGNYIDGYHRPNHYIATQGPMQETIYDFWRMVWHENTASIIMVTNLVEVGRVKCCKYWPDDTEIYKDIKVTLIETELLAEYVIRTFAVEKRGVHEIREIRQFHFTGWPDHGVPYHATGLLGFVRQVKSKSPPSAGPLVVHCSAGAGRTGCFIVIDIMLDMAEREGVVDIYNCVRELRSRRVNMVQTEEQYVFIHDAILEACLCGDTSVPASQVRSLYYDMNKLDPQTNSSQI
T5 sequence (P23471 1667-2028 limits assumed): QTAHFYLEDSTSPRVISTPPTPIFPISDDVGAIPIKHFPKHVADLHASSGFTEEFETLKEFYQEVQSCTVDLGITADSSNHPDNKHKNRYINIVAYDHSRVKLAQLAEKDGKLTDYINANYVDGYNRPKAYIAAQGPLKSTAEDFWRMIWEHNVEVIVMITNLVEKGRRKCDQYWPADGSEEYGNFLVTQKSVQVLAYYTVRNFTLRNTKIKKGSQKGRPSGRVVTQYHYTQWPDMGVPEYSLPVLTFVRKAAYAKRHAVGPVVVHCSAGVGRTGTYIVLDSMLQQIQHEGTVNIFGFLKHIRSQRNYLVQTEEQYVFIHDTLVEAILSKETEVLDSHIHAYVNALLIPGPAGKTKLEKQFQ

IC50 [1] [µM]	IC50 [2] [µM]	IC50 [3] [µM]	IC50 [4] [µM]	IC50 [5] [µM]	IC50 [6] [µM]	IC50 [7] [µM]	IC50 [8] [µM]	Structure (SMILES)
41	> 100	22	> 100	> 100	–	–	–	O=S(=O)(c1ccc(SSc2ccc(S(=O)(=O)C(F)(F)F)cc2)cc1)C(F)(F)F [Example 7, Bis (4-trifluoromethylsulfonylphenyl) disulfide]
–	–	–	–	–	7.4	15.9	15.8	CN(Cc1ccc2cc(C(=O)Nc3cccc(C(=O)O)c3)ccc2c1)S(=O)(=O)C(F)(F)F [Example 93, 3-({6-[(Methyl-trifluoromethanesulfonyl-amino)-methyl]-naphthalene-2-carbonyl}-amino)-benzoic acid]
–	–	–	–	–	> 100	> 100	> 20	CCOC(=O)c1cc2cc(NS(=O)(=O)C(F)(F)F)ccc2n1CC(=O)O [Example 95, 1-Carboxymethyl-5-trifluoromethanesulfonylamino-1H-indole-2-carboxylic acid ethyl ester]
–	–	–	–	–	62.9	44.2	6.1	O=C(O)Cn1c(C(=O)O)cc2cc(NS(=O)(=O)C(F)(F)F)ccc21 [Example 97, 1-Carboxymethyl-5-trifluoromethanesulfonylamino-1H-indole-2-carboxylic acid]
–	–	–	–	–	41.6	> 100	> 20	CCOC(=O)c1cc2cc(N(S(=O)(=O)C(F)(F)F)S(=O)(=O)C(F)(F)F)ccc2n1CC(=O)O [Example 98, 1-Carboxymethyl-5-(N,N-ditrifluoromethanesulfonyl)amino-1H-indole-2-carboxylic acid ethyl ester]
–	–	–	–	–	> 100	> 100	> 20	O=C(O)Cn1c(C(=O)O)cc2cc(N(S(=O)(=O)C(F)(F)F)S(=O)(=O)C(F)(F)F)ccc21 [Example 100, 1-Carboxymethyl-5-(N,N-ditrifluoromethanesulfonyl)amino-1H-indole-2-carboxylic acid]
–	–	–	–	–	1.4	6.6	3.4	CCOC(=O)c1cc2cc(NS(=O)(=O)C(F)(F)F)ccc2n1CC1CCCCC1 [Example 101, 1-Cyclohexylmethyl-5-trifluoromethanesulfonylamino-1H-indole-2-carboxylic acid ethyl ester]
–	–	–	–	–	12.2	43.1	4	O=C(O)c1cc2cc(NS(=O)(=O)C(F)(F)F)ccc2n1Cc1ccccc1 [Example 102, 1-Benzyl-5-trifluoromethanesulfonylamino-1H-indole-2-carboxylic acid]
–	–	–	–	–	34.7	> 100	17.9	O=C(O)c1cc2cc(NS(=O)(=O)C(F)(F)F)ccc2n1CC1CCCCC1 [Example 103, 1-Cyclohexylmethyl-5-trifluoromethanesulfonylamino-1H-indole-2-carboxylic acid]

Structure (SMILES)	IC50 [1] [µM]	IC50 [2] [µM]	IC50 [3] [µM]	IC50 [4] [µM]	IC50 [5] [µM]	IC50 [6] [µM]	IC50 [7] [µM]	IC50 [8] [µM]
CCOC(=O)c1cc2cc(NS(=O)(=O)C(F)(F)F)ccc2n1CC(=O)OC(C)(C)C [Example 94, 1-tert-Butoxycarbonylmethyl-5-trifluoromethanesulfonylamino-1H-indole-2-carboxylic acid ethyl ester]	–	–	–	–	–	4.2	12	1.5
CC(C)(C)OC(=O)Cn1c(C(=O)O)cc2cc(NS(=O)(=O)C(F)(F)F)ccc21 [Example 96, 1-tert-Butoxycarbonylmethyl-5-trifluoromethanesulfonylamino-1H-indole-2-carboxylic acid]	–	–	–	–	–	31.2	34.7	9.1
CCOC(=O)c1cc2cc(N(S(=O)(=O)C(F)(F)F)S(=O)(=O)C(F)(F)F)ccc2n1CC(=O)OC(C)(C)C [Example 99, 1-tert-Butoxycarbonylmethyl-5-(N,N-ditrifluoromethanesulfonyl)amino-1H-indole-2-carboxylic acid ethyl ester]	–	–	–	–	–	27.5	4.8	7
